ChEMBL document CHEMBL1137450, “Dual serotonin transporter inhibitor/histamine H3 antagonists: development of rigidified H3 pharmacophores” (Bioorg Med Chem Lett, 2007)
Blank lines part the entries; values can stand above or below the compound they belong to. The source made the active and inactive calls. The calls are words filed in the database; no cut-off is given here.

How the values were obtained:
[1] = biological target: Sodium-dependent serotonin transporter (Homo sapiens, UniProt P31645); assay: Binding affinity at human SERT
Sequence of Sodium-dependent serotonin transporter (Homo sapiens, UniProt P31645) (P31645 whole entry): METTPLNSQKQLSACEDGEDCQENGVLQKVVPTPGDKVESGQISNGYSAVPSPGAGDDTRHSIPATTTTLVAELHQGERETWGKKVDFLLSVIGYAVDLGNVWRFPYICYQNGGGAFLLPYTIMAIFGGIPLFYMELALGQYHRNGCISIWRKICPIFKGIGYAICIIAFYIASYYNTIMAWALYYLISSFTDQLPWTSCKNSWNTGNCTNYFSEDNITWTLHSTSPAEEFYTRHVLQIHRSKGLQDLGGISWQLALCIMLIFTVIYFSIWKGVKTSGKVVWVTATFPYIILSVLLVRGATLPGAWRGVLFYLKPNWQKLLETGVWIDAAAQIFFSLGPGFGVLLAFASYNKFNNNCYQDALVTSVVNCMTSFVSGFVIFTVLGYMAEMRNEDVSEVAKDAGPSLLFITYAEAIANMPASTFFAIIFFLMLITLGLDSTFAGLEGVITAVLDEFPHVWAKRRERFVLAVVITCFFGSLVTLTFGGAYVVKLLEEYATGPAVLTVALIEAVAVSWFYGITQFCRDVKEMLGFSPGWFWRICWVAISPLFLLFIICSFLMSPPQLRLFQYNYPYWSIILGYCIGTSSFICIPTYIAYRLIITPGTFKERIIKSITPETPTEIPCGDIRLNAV

Mus musculus [2] = assay: Effect on 5HTP induced mouse head twitch model at 10 mg/kg after 1 hr; assay type: functional, organism-based; set-up: dose 10 mg/kg
Mus musculus [3] = assay: Effect on 5HTP induced mouse head twitch model at 10 mg/kg after 24 hrs; assay type: functional
Histamine H3 receptor = Histamine H3 receptor (Homo sapiens, UniProt Q9Y5N1); assay: Antagonistic activity at H3 receptor expressed in […] cells assessed as forskolin stimulated cyclic AMP accumulation by functional assay; assay type: cell-based, SK-N-MC; conditions: read-out: pA2 (converted)
Sequence of Histamine H3 receptor (Q9Y5N1 whole entry): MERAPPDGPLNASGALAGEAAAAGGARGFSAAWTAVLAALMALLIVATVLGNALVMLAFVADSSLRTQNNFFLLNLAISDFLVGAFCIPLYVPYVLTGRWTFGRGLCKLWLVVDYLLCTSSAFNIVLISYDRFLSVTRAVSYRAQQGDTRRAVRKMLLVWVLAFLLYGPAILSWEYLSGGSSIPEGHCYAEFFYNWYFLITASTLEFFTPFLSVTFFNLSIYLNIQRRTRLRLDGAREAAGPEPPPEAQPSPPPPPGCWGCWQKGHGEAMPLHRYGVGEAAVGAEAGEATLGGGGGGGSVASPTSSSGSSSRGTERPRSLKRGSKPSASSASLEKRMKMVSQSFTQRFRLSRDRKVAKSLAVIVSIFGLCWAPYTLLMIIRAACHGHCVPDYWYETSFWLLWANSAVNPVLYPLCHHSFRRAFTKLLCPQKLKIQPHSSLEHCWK

[4] = biological target: Sodium-dependent serotonin transporter (Rattus norvegicus, UniProt P31652); assay: Binding affinity at rat SERT
Sequence of Sodium-dependent serotonin transporter (Rattus norvegicus, UniProt P31652) (P31652 whole entry): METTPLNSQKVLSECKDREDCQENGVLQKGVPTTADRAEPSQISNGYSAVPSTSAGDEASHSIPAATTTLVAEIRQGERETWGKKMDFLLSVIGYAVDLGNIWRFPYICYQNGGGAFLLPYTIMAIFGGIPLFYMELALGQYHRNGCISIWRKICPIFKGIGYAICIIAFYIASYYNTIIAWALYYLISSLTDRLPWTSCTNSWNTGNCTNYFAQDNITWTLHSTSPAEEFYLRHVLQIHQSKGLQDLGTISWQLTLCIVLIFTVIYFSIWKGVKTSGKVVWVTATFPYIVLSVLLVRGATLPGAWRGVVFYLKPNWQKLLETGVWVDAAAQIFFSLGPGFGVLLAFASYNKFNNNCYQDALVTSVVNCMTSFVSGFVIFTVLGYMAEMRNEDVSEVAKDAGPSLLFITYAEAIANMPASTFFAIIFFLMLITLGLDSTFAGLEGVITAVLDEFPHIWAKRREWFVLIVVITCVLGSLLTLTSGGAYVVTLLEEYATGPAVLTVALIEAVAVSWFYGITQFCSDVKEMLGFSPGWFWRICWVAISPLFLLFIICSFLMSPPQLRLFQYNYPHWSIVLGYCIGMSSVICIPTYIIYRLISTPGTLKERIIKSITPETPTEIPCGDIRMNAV

SMILES: CN(C)CCC(Oc1ccccc1)c1ccc(OCCCN2CCCCC2)cc1 (centres undefined)
Ki [1]: 25.7 nM

SMILES: CSc1ccc(C2CN(C)Cc3cc(Oc4ccc(CN5CCCCC5)cn4)ccc32)cc1 (centres undefined)
Activity (Mus musculus [2]): inactive | Activity (Mus musculus [3]): 272% | Kb (Histamine H3 receptor): 20 nM

SMILES: CSc1ccc(C2CN(C)Cc3cc(Oc4cncc(CN5CCCCC5)c4)ccc32)cc1 (centres undefined)
Ki [4]: 9.7 nM | Ki [1]: 8.3 nM

The next lines start with the values.

Kb (Histamine H3 receptor): 20 nM
SMILES: CSc1ccc(C2CN(C)Cc3cc(Oc4nc(CN5CCCCC5)cs4)ccc32)cc1 (centres undefined)

Ki [4]: 14 nM | Ki [1]: 15.5 nM
SMILES: CSc1ccc(C2CN(C)Cc3cc(Oc4nc(CN5CCOCC5)cs4)ccc32)cc1 (centres undefined)
